# Legend:
# Type in all cases: in vitro ADME
# UGT1A1 = molecular target: T1, UGT1A1 (Homo sapiens, UniProt P22309); assay: Glucuronidation by expressed human UGT1A1; conditions: 37°C
# T1 sequence (P22309 26-533): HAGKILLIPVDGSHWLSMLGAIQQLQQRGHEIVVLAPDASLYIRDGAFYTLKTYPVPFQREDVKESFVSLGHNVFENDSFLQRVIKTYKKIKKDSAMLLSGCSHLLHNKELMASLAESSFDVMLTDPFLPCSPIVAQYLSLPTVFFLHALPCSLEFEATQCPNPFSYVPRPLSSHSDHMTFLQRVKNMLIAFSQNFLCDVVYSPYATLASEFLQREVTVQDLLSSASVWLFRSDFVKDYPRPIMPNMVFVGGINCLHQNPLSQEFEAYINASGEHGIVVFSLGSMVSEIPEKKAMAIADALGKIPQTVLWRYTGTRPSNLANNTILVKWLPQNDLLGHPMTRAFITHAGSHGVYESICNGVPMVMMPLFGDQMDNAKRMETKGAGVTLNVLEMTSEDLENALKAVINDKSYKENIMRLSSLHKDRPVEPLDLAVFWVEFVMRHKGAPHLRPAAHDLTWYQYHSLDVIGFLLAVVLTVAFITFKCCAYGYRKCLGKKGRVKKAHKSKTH
# UGT1A7 = molecular target: T2, UGT1A7 (Homo sapiens, UniProt Q9HAW7); assay: Glucuronidation by expressed human UGT1A7; conditions: UGT1A7, 2.5μM substrate, 37°C
# T2 sequence (Q9HAW7 26-530): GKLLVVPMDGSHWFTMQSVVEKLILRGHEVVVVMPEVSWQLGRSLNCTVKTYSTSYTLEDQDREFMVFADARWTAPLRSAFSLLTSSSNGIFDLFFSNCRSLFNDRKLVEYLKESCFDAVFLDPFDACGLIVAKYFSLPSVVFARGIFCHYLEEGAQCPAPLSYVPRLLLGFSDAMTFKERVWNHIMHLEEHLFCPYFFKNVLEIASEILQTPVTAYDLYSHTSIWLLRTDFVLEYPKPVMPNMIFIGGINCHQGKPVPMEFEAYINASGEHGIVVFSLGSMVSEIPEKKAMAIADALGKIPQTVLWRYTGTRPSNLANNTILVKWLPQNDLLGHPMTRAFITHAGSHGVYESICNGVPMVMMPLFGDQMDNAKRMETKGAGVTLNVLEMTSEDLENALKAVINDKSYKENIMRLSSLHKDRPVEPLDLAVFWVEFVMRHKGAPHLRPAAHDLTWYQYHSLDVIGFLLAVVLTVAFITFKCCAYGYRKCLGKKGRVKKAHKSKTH
# UGT1A8 = molecular target: T3, UGT1A8 (Homo sapiens, UniProt Q9HAW9); assay: Glucuronidation by expressed human UGT1A8; conditions: UGT1A8, 2.5μM substrate, 37°C
# T3 sequence (Q9HAW9 26-530): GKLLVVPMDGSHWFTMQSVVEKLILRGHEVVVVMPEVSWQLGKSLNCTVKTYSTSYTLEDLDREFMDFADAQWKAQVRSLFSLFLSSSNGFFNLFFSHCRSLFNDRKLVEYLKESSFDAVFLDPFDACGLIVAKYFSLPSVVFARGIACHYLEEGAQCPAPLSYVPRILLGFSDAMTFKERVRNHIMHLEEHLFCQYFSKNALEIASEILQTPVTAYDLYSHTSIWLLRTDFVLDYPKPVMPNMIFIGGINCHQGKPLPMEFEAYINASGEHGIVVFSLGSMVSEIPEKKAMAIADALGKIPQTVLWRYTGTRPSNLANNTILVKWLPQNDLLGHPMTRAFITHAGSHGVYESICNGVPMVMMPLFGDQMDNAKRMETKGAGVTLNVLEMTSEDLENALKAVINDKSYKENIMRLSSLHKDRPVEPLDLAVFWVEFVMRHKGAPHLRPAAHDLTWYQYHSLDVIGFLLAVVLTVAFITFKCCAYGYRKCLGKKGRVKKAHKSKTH
# [1] = Glucuronidation by pooled human intestinal microsomes; conditions: human intestinal microsomes
# UGT1A9 = molecular target: T4, UGT1A9 (Homo sapiens, UniProt O60656); assay: Glucuronidation by expressed human UGT1A9; conditions: UGT1A9, 2.5 μM substrate, 37°C
# T4 sequence (O60656 26-530): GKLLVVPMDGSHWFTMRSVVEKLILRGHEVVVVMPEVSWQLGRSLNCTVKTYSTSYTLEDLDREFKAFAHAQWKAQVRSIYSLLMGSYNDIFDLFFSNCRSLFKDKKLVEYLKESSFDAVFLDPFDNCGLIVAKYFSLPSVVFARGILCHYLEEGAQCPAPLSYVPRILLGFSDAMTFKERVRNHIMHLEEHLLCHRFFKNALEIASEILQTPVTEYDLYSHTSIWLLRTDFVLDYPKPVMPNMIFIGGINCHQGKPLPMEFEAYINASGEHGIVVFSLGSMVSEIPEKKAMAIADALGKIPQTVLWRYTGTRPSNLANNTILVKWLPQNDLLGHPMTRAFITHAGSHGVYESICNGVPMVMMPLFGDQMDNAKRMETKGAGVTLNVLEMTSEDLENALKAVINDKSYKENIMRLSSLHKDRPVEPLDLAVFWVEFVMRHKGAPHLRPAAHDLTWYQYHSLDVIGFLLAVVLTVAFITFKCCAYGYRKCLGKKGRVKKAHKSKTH
# UGT1A10 = molecular target: T5, UGT1A10 (Homo sapiens, UniProt Q9HAW8); assay: Glucuronidation by expressed human UGT1A10; conditions: UGT1A10, 10 μM substrate, 37°C
# T5 sequence (Q9HAW8 26-530): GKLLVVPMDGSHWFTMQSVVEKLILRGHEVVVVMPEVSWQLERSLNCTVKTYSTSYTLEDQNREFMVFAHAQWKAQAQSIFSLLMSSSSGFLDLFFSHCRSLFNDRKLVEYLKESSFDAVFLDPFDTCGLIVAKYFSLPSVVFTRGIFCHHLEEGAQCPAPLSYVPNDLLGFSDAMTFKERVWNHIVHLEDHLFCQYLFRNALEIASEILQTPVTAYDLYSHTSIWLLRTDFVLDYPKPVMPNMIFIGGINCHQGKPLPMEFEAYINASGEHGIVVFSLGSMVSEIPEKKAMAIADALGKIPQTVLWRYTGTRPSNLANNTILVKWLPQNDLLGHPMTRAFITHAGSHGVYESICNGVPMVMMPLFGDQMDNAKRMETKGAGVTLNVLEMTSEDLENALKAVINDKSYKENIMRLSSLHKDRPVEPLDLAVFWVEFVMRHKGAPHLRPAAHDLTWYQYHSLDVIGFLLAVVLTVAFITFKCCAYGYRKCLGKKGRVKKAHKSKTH
# [2] = Glucuronidation by pooled human liver microsomes; conditions: human liver microsomes, 2.5μM substrate
# UGT2B7 = molecular target: T6, UGT2B7 (Homo sapiens, UniProt P16662); assay: Glucuronidation by expressed human UGT2B7; conditions: for glucuronidation rate: 37°C
# T6 sequence (P16662 24-529): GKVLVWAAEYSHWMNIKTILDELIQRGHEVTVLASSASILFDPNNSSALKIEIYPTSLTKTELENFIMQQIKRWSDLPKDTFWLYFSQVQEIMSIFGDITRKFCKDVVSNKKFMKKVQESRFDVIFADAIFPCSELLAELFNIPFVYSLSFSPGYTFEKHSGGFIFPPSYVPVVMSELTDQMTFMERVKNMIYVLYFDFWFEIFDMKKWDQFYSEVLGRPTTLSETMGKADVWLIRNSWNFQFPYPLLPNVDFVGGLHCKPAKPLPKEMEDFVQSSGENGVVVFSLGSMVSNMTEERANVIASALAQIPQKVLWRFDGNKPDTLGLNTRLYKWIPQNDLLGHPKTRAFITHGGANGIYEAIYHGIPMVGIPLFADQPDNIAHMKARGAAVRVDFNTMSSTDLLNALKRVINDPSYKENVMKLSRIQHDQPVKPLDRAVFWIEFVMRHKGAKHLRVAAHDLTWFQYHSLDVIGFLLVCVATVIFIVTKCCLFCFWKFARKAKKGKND
smiles,measurement,setting,value
"O=c1c(O)c(-c2ccccc2)oc2ccccc12 [3-HF, 3-hydroxyflavone]",glucuronidation rate,"UGT1A1; UGT1A1, 2.5μM substrate",2.68 ± 0.47 nmol per min per mg of protein
same,glucuronidation rate,"UGT1A1; UGT1A1, 10μM substrate",3.80±0.21 nmol per min per mg of protein
same,glucuronidation rate,"UGT1A1; UGT1A1, 35μM substrate",3.85±0.12 nmol per min per mg of protein
same,glucuronidation rate,UGT1A7,8.27±0.15 nmol per min per mg of protein
same,glucuronidation rate,UGT1A8,2.19 ± 0.27 nmol per min per mg of protein
same,glucuronidation rate,[1]; 2.5 μM substrate,12.35±1.32 nmol per min per mg of protein
same,magnitude of the difference between fastest and slowest glucuronidation rate,"[1]; 2.5 μM, 3-HF vs 5-HF",25 folds
same,glucuronidation rate,UGT1A9,3.03±0.04 nmol per min per mg of protein
same,glucuronidation rate,UGT1A10,1.37±0.19 nmol per min per mg of protein
same,glucuronidation rate,[2],5.04±0.48 nmol per min per mg of protein
same,glucuronidation rate,"UGT2B7; UGT2B7, 2.5μM substrate",1.39±0.14 nmol per min per mg of protein
same,glucuronidation rate,"UGT2B7; UGT2B7, 10μM substrate",5.35±0.91 nmol per min per mg of protein
same,glucuronidation rate,"UGT2B7; UGT2B7, 35μM substrate",2.19±0.07 nmol per min per mg of protein
same,substrate of UGT2B7,"UGT2B7; UGT2B7, conclusion from fingerprints",substrates

# From publication PMC2941766 (Molecular pharmaceutics, 2010)
